Laboratory results taken from ChEMBL document CHEMBL1137544, “Syntheses of immunomodulating androstanes and stigmastanes: comparison of their TNF-alpha inhibitory activity” (Bioorg Med Chem, 2007).
The source made the active and inactive calls. The calls are words filed in the database; no cut-off is given here.

These molecules were tested on J774.A1 (assay: Cytotoxicity against mouse J774A.1 cells).
Assay type: cell-based

SMILES | Activity
CC[C@@H](C(C)C)[C@@H](O)[C@H](O)[C@@H](C)[C@H]1CC[C@H]2[C@@H]3CC(=O)[C@@]4(O)C[C@@H](F)CC[C@]4(C)[C@H]3CC[C@]12C | Toxic
CC[C@@H](C(C)C)[C@@H](O)[C@H](O)[C@@H](C)[C@H]1CC[C@H]2[C@@H]3CC(=O)[C@@]4(O)C[C@@H](Br)CC[C@]4(C)[C@H]3CC[C@]12C | Toxic

The molecules below were run on J774.A1 (assay: Inhibition of LPS-induced TNFalpha production in mouse J774A.1 cells).
Assay type: functional, cell-based

SMILES | IC50 [nM] | Activity
C[C@]12CC[C@H]3[C@@H](CC(=O)[C@@]4(O)C[C@@H](O)CC[C@]34C)[C@@H]1CCC2=O | 109 | 
CC[C@@H](C(C)C)[C@H](O)[C@@H](O)[C@@H](C)[C@H]1CC[C@H]2[C@@H]3CC=C4C[C@@H](F)CC[C@]4(C)[C@H]3CC[C@]12C |  | inactive
C[C@]12CC[C@H]3[C@@H](CC(=O)[C@@]4(O)C[C@@H](Br)CC[C@]34C)[C@@H]1CCC(=O)O2 |  | inactive
CC[C@@H](C(C)C)[C@H](O)[C@@H](O)[C@@H](C)[C@H]1CC[C@H]2[C@@H]3CC(=O)[C@@]4(O)C[C@@H](Br)CC[C@]4(C)[C@H]3CC[C@]12C | 38 | 
CC[C@@H](C(C)C)[C@H](O)[C@@H](O)[C@@H](C)[C@H]1CC[C@H]2[C@@H]3CC=C4C[C@@H](Br)CC[C@]4(C)[C@H]3CC[C@]12C | 144 | 
CC[C@@H](C(C)C)[C@H](O)[C@@H](O)[C@@H](C)[C@H]1CC[C@H]2[C@@H]3CC(=O)[C@@]4(O)C[C@@H](O)CC[C@]4(C)[C@H]3CC[C@]12C | 18 | 
C[C@@H]1C[C@H]2[C@@H]3CCC4=CC(=O)C=C[C@]4(C)[C@@]3(F)[C@@H](O)C[C@]2(C)[C@@]1(O)C(=O)CO [DEXAMETHASONE] | 48 | 
C[C@]12CC[C@H](O)CC1=CC[C@@H]1[C@@H]2CC[C@]2(C)C(=O)CC[C@@H]12 [PRASTERONE] | 141 | 
CC[C@@H](C(C)C)[C@H](O)[C@@H](O)[C@@H](C)[C@H]1CC[C@H]2[C@@H]3CC(=O)[C@@]4(O)C[C@@H](F)CC[C@]4(C)[C@H]3CC[C@]12C | 47 | 
CC[C@@H](C(C)C)[C@H](O)[C@@H](O)[C@@H](C)[C@H]1CC[C@H]2[C@@H]3CC=C4C[C@@H](O)CC[C@]4(C)[C@H]3CC[C@]12C | 35 | 
CC[C@@H](C(C)C)[C@H](O)[C@@H](O)[C@@H](C)[C@H]1CC[C@H]2[C@@H]3CC=C4C[C@@H](Cl)CC[C@]4(C)[C@H]3CC[C@]12C |  | inactive
C[C@]12CC[C@H]3[C@@H](CC(=O)[C@@]4(O)C[C@@H](Br)CC[C@]34C)[C@@H]1CCC2=O | 134 | 
